Assay results from the supplement of paper PMC10307832.

Columns and labels:
Assay in all cases: relative viability (nuclei count vs DMSO), 5 days (fraction); higher = more cells survive
[1] = compound: CNC(=O)c1cc(Oc2ccc(NC(=O)Nc3ccc(Cl)c(C(F)(F)F)c3)cc2)ccn1 [Sorafenib] + C[C@]1(O)C[C@@H](c2nc(-c3ccc4ccc(-c5ccccc5)nc4c3)c3c(N)nccn32)C1 [Linsitinib] (partner 1 µM)
Procedure, shortened: (§1)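 Lung cancer cell lines were pin-tool dosed in 1536-well plates on the day after seeding, with either a lone drug or a fixed anchor-drug dose plus five library-drug doses (not always all listed) in √10 steps. Nuclei were counted on 4× images after 5 days. Relative viability is the ratio of treated-well to vehicle-well nuclei counts, with each value a median of duplicate plates.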

[2] = compound: CNC(=O)c1cc(Oc2ccc(NC(=O)Nc3ccc(Cl)c(C(F)(F)F)c3)cc2)ccn1 [Sorafenib] + Nc1nc2[nH]cc(CCc3ccc(C(=O)N[C@@H](CCC(=O)O)C(=O)O)cc3)c2c(=O)[nH]1 [Pemetrexed] (partner 0.2 µM)
Procedure, shortened: as §1

[3] = compound: CNC(=O)c1cc(Oc2ccc(NC(=O)Nc3ccc(Cl)c(C(F)(F)F)c3)cc2)ccn1 [Sorafenib] + C[C@@H](Oc1cc(-c2cnn(C3CCNCC3)c2)cnc1N)c1c(Cl)ccc(F)c1Cl [Crizotinib] (partner 1 µM)
Procedure, shortened: as §1

[4] = compound: CNC(=O)c1cc(Oc2ccc(NC(=O)Nc3ccc(Cl)c(C(F)(F)F)c3)cc2)ccn1 [Sorafenib] + CC(=O)c1c(C)c2cnc(Nc3ccc(N4CCNCC4)cn3)nc2n(C2CCCC2)c1=O [Palbociclib] (partner 0.5 µM)
Procedure, shortened: as §1

[5] = compound: CNC(=O)c1cc(Oc2ccc(NC(=O)Nc3ccc(Cl)c(C(F)(F)F)c3)cc2)ccn1 [Sorafenib] + NC(=O)Nc1cc(-c2cccc(F)c2)sc1C(=O)N[C@H]1CCCNC1 [AZD7762] (partner 0.2 µM)
Procedure, shortened: as §1

Row | Cell Line | relative viability ([1]; first compound 0.08 µM) | relative viability ([1]; first compound 0.253 µM) | relative viability ([1]; first compound 2.53 µM) | relative viability ([1]; first compound 8 µM) | relative viability ([2]; first compound 0.08 µM) | relative viability ([2]; first compound 0.253 µM) | relative viability ([2]; first compound 2.53 µM) | relative viability ([2]; first compound 8 µM) | relative viability ([3]; first compound 0.08 µM) | relative viability ([3]; first compound 0.253 µM) | relative viability ([3]; first compound 2.53 µM) | relative viability ([3]; first compound 8 µM) | relative viability ([4]; first compound 0.08 µM) | relative viability ([4]; first compound 0.253 µM) | relative viability ([4]; first compound 2.53 µM) | relative viability ([4]; first compound 8 µM) | relative viability ([5]; first compound 0.08 µM) | relative viability ([5]; first compound 0.253 µM) | relative viability ([5]; first compound 2.53 µM) | relative viability ([5]; first compound 8 µM)
1 | NCI-H23 | 0.626 | 0.439 | 0.553 | 0.512 | 0.764 | 0.609 | 0.716 | 0.421 | 0.566 | 0.427 | 0.689 | 0.427 | 0.522 | 0.503 | 0.514 | 0.389 | 0.193 | 0.323 | 0.229 | 0.159
2 | NCI-H322M | 0.886 | 1.05 | 0.912 | 0.984 | 0.728 | 0.618 | 0.739 | 0.763 | 0.945 | 0.848 | 0.894 | 0.859 | 0.524 | 0.589 | 0.525 | 0.63 | 0.65 | 0.511 | 0.533 | 0.595
3 | NCI-H358 | 0.763 | 0.85 | 0.748 | 0.255 | 0.168 | 0.146 | 0.145 | 0.144 | 0.56 | 0.72 | 0.713 | 0.292 | 0.137 | 0.127 | 0.182 | 0.128 | 0.539 | – | 0.79 | 0.368
4 | NCI-H441 | 0.563 | 0.417 | 0.355 | 0.302 | 0.283 | 0.234 | 0.257 | 0.227 | 0.727 | 0.64 | 0.532 | 0.473 | 0.222 | 0.245 | 0.252 | 0.164 | 1.03 | 0.946 | 0.841 | 0.855
